# Values joined by “and” are separate entries in the source; they are usually repeats but may differ in a detail not shown here. Equal entries are not always repeated. “Also recorded” adds a separate entry of the source.
# Tests used:
# [1] = test system: HCT116 human colon cancer xenograft; test: Anti-tumor activity in HCT116 xenograft in Foxn1 athymic nude mice (study CLBBI1); type: in vivo; conditions: for Percent Tumor Growth Inhibition (% TGI): 5 days/week
# Source text: Evaluation of the Anti-Tumor Activity of CLX-155 [(2R,3R,4R,5R)-2-(5-fluoro-4-octanamido-2-oxopyrimidin-1(2H)-yl)-5-methyltetrahydrofuran-3,4-diyl diacetate] in Relation to Capecitabine in HCT116 Xenograft in Foxn1 Athymic Nude Mice Model Study Code: CLBBI1
# The purpose of this study was to evaluate the anti-tumor activity of CLX-155 administered by oral gavage, once daily for 5 days/week (two days off) for three weeks in HCT116 human colon cancer xenograft bearing Foxn1 athymic nude mice. The anti-tumor activity of CLX-155 was compared with capecitabine.
# (§1) Foxn1 athymic nude female mice (7-8 weeks) were implanted with human colon cancer cell line, HCT116 (5 million cells/site) subcutaneously in the dorsal right flank. The animals were randomized (N=10) into different treatment groups as vehicle control, CLX-155 (125, 250 and 500 mg/kg/day) or capecitabine (1000 mg/kg/day) based on the tumor volume, when the subcutaneous tumor reached a volume in the range of 70-170 mm3. The doses were selected based on the results of a 7-day repeated dose range finding toxicity study in Foxn1 nude mice.
# (§2) The animals in the control group were dosed with the formulation used for CLX-155, which consisted of Capryol 90 (32.5% w/v), Polysorbate 80 (2.5% w/v) in Water (q.$) at the dose volume of 8 mL/kg. The Capecitabine formulation was prepared using 0.5% Hydroxypropyl methylcellulose (HPMC E 15) in 40 mM citrate buffer, pH 6.0. Treatment to animals was performed for three consecutive weeks (5 days/week dosing followed by 2 days off). The dose volume was 8 and 10 ml/kg body weight for CLX-155 and capecitabine, respectively. […] Tumor growth inhibition (TGI) was calculated based on the tumor volume on a given day as compared to that on day 1.
# [2] = Mortality, clinical signs and body weight in the HCT116 xenograft study; type: in vivo; conditions: for mortality: N=10, deaths on day 14 and 22
# Procedure: as §1, §2
smiles,measurement,setting,value
"CCCCCCCC(=O)Nc1nc(=O)n([C@@H]2O[C@H](C)[C@@H](OC(C)=O)[C@H]2OC(C)=O)cc1F [CLX-155, (2R,3R,4R,5R)-2-(5-fluoro-4-octanamido-2-oxopyrimidin-1(2H)-yl)-5-methyltetrahydrofuran-3,4-diyl diacetate]",Percent Tumor Growth Inhibition (% TGI),"[1]; 125 mg/kg/day oral gavage, day 3",49.4%
same,Percent Tumor Growth Inhibition (% TGI),"[1]; 125 mg/kg/day oral gavage, day 5",59.5%
same,Percent Tumor Growth Inhibition (% TGI),"[1]; 125 mg/kg/day oral gavage, day 8",59.8%
same,Percent Tumor Growth Inhibition (% TGI),"[1]; 125 mg/kg/day oral gavage, day 10",56.3%
same,Percent Tumor Growth Inhibition (% TGI),"[1]; 125 mg/kg/day oral gavage, day 12",58.5%
same,Percent Tumor Growth Inhibition (% TGI),"[1]; 125 mg/kg/day oral gavage, day 15",57.8%
same,Percent Tumor Growth Inhibition (% TGI),"[1]; 250 mg/kg/day oral gavage, day 3",83.6%
same,Percent Tumor Growth Inhibition (% TGI),"[1]; 250 mg/kg/day oral gavage, day 5",61.4%
same,Percent Tumor Growth Inhibition (% TGI),"[1]; 250 mg/kg/day oral gavage, day 8",67.7%
same,Percent Tumor Growth Inhibition (% TGI),"[1]; 250 mg/kg/day oral gavage, day 10",66.5%
same,Percent Tumor Growth Inhibition (% TGI),"[1]; 250 mg/kg/day oral gavage, day 12",66.7%
same,Percent Tumor Growth Inhibition (% TGI),"[1]; 250 mg/kg/day oral gavage, day 15",70.4%
same,Percent Tumor Growth Inhibition (% TGI),"[1]; 500 mg/kg/day oral gavage, day 3",51.1%
same,Percent Tumor Growth Inhibition (% TGI),"[1]; 500 mg/kg/day oral gavage, day 5",67.1%
same,Percent Tumor Growth Inhibition (% TGI),"[1]; 500 mg/kg/day oral gavage, day 8",75.3%
same,Percent Tumor Growth Inhibition (% TGI),"[1]; 500 mg/kg/day oral gavage, day 10",75.4%
same,Percent Tumor Growth Inhibition (% TGI),"[1]; 500 mg/kg/day oral gavage, day 12",79.5%
same,Percent Tumor Growth Inhibition (% TGI),"[1]; 500 mg/kg/day oral gavage, day 15",90.6%
same,complete tumor regressions / complete responders (CR),"[1]; 500 mg/kg/day, N=10",Two and 2/10
same,TGI compared with the other drug (in words),[1]; CLX-155 at 500 mg/kg/day,comparable to capecitabine at 1000 mg/kg/day
same,tumor growth inhibition as compared to the vehicle control (in words),[1]; all dose levels tested,"statistically significant, dose dependent tumor growth inhibition at all doses; also recorded: statistically significant, dose dependent tumor growth inhibition at all the dose levels tested; also recorded: dose-dependent inhibition of tumor growth"
"CCCCCOC(=O)Nc1nc(=O)n([C@@H]2O[C@H](C)[C@@H](O)[C@H]2O)cc1F [Capecitabine, reference compound]",Mean % body weight reduction,[2]; 1000 mg/kg/day,−5.9%
same,clinical signs of toxicity,[2]; 1000 mg/kg/day,hunched back and scaly skin
same,mortality,[2]; 1000 mg/kg/day,Two
same,mortality,"[2]; 1000 mg/kg/day, listed as capecitabine",2/10
same,relative toxicity based on mortality and clinical signs of toxicity,[2]; capecitabine 1000 mg/kg/day vs CLX-155 125-500 mg/kg/day,relatively more toxic than CLX-155
same,CR or PR observed,[1]; 1000 mg/kg/day,no CR or PR observed
same,Percent Tumor Growth Inhibition (% TGI),"[1]; 1000 mg/kg/day, day 3",27.3%
same,Percent Tumor Growth Inhibition (% TGI),"[1]; 1000 mg/kg/day, day 5",46.2%
same,Percent Tumor Growth Inhibition (% TGI),"[1]; 1000 mg/kg/day, day 8",68.0%
same,Percent Tumor Growth Inhibition (% TGI),"[1]; 1000 mg/kg/day, day 10",75.4%
same,Percent Tumor Growth Inhibition (% TGI),"[1]; 1000 mg/kg/day, day 12",80.9%
same,Percent Tumor Growth Inhibition (% TGI),"[1]; 1000 mg/kg/day, day 15",87.7%
same,TGI compared with the other drug (in words),[1]; Capecitabine at 1000 mg/kg/day,comparable to that observed at 500 mg/kg/day of CLX-155
